A value given as a limit tells only on which side of the number the result lay.

The target in the assay is T1, CB1 receptor (Homo sapiens, UniProt P21554).
T1 construct: Perkin Elmer (CB1-CHO cells); host or cells: Flp-In CHO cells or CB1-CHO cells, stably expressing
T1 sequence (P21554 whole entry): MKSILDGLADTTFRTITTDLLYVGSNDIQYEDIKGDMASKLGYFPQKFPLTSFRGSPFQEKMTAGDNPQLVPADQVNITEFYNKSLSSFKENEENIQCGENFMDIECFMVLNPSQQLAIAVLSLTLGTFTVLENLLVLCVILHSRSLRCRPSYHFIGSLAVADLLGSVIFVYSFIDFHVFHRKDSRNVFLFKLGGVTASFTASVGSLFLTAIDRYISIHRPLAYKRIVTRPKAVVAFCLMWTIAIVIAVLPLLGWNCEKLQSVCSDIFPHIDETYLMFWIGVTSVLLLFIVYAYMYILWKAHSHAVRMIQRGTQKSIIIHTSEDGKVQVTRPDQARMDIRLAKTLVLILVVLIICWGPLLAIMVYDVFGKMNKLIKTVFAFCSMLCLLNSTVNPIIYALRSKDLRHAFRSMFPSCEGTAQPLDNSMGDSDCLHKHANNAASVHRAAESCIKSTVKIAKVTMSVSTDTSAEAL
Kind of assay: CB1 cAMP antagonist assay (LANCE Ultra cAMP kit). In kind it is cell-based. Particulars: CHO cells stably expressing the CB1 receptor; forskolin and agonist CP55940 at EC90. An excerpt: LANCE Ultra cAMP kit (Perkin Elmer) was used to quantitate the amount of 3′,5′-cyclic adenosine monophosphate (cAMP) produced in Flp-In CHO cells (Invitrogen) stably expressing the CB1 receptor, CB1-CHO cells (Perkin Elmer) stably expressing the CB1 receptor, or CB2-CHO cells (Perkin Elmer) stably expressing the CB2 receptor.
Forskolin was initially titrated to determine the response of the cells. The EC90 of forskolin was used for compound testing. CP55940 was titrated and used with EC90 of forskolin to determine the level of agonist stimulation. EC90 of the agonist was used for subsequent compound testing. For the CB1 assay, Forskolin (Sigma), CP55940 (Cayman Chemicals), and AM251 (MCE) were diluted in 100% DMSO, starting at 100 mM, 1 mM, and 1 mM respectively, in 3-fold serial dilutions. For the CB2 assay, Forskolin (Sigma), CP55940 (Cayman Chemicals), and AM630 (MCE) were diluted in 100% DMSO, starting at 100 mM, 1 mM, and 30 mM respectively, in 3-fold serial dilutions. Test compounds were diluted in 100% DMSO starting from 10 mM, 3-fold dilutions. The cAMP assay buffer contains 1× Hank's Buffered Saline Solution with Ca^2+ and Mg^2+ (Invitrogen), 5.3 mM HEPES (Invitrogen), 0.05% BSA, 0.5 mM IBMX (Sigma). For all assays, cells were harvested, counted, and diluted in cAMP assay buffer to 1×10^5 cells/mL. Only cells with viability >85% were used for the assay. Cells were seeded at 1000 cells/well in 384-well plates and 10 nL/well AM251 (for CB1), AM630 (for CB2) or test compound was added and incubated at 37° C. for 10 min. Then forskolin and agonist were added to reach their EC90 and incubated at 25° C. for 30 min. To detect the amount of cAMP produced, 5 μL of a 100× diluted stock of Eu-cAMP tracer and 5 μL of 200× diluted stock of Ulight-anti-cAMP were added to each well, and the plate incubated at 25° C. for 15 min. The FRET signal was read using an EnVision microplate reader (λex=320 nm, λem=615 nm and 665 nm). The results are expressed as % Inhibition, where % inhibition=100−100×(U−C2)/(C1−C2), where U is the FRET ratio (λem (665 nm)/λem (615 nm)) of sample, C1 is the average of the high controls (signal with no antagonist added), and C2 is the average of low controls (signal with the highest concentration of AM251 or AM630 antagonist). The IC50 is determined by fitting the percentage of inhibition as a function of compound concentrations with the Hill equation, using a 4-parameter fit in either XLfit or GraphPad Prism.
On the technique in general: TR-FRET usually uses a lanthanide donor and a delayed reading to cut background.
As usually defined, the IC50 is the concentration that inhibits the measured activity by half. A low value points to greater potency. `CC(=O)N1CCC(Cn2c(=O)n(C(C)C(N)=O)c(=O)c3c2nc(-c2ccccc2Cl)n3-c2ccc(Cl)cc2)CC1` (stereo not shown) [Compound 129, 2-[3-[(1-acetylpiperidin-4-yl)methyl]-8-(2-chlorophenyl)-7-(4-chlorophenyl)-2,6-dioxopurin-1-yl]propanamide] showed an IC50 of 0.1 to 1 µM.
In the case of `NC(=O)Cn1c(=O)c2c(nc(-c3ncccc3Cl)n2-c2ccc(Cl)cc2)n(CC2CCS(=O)(=O)CC2)c1=O` [Compound 163, 2-[7-(4-chlorophenyl)-8-(3-chloropyridin-2-yl)-3-[(1,1-dioxo-1λ^6-thian-4-yl)methyl]-2,6-dioxopurin-1-yl]acetamide], the IC50 lay within 1 to 5 µM.
Under `Cn1c(=O)c2c(nc(-c3ccccc3Cl)n2-c2ccc(Cl)cc2)n(CC2CCN(CC(N)=O)CC2)c1=O` [Compound 115, 2-(4-[[8-(2-chlorophenyl)-7-(4-chlorophenyl)-1-methyl-2,6-dioxo-2,3,6,7-tetrahydro-1H-purin-3-yl]methyl]piperidin-1-yl)acetamide] stands 0.1 to 1 µM.
Under `NC(=O)Cn1c(=O)c2c(nc(-c3ccccc3Cl)n2-c2ccc(Cl)cc2)n(Cc2ccc(CC3COCCO3)cc2)c1=O` (stereo not shown) [Compound 143] stands below 0.1 µM; under `C[C@@H](c1ccc(C(N)=O)cc1)n1c(=O)n(C[C@@H](O)CO)c(=O)c2c1nc(-c1ccccc1Cl)n2-c1ccc(Cl)cc1` [Compound 151], 0.1 to 1 µM.
Consider `Cn1c(=O)c2c(nc(-c3ccccc3Cl)n2-c2ccc(Cl)nc2)n(C2CCCCC2)c1=O` [Compound 149, 8-(2-chlorophenyl)-7-(6-chloropyridin-3-yl)-3-cyclohexyl-1-methylpurine-2,6-dione], for which the IC50 was below 0.1 µM.
To `COCCOCc1ccc(Cn2c(=O)n(C)c(=O)c3c2nc(-c2ccccc2Cl)n3-c2ccc(Cl)cc2)cc1` [Compound 122, 8-(2-chlorophenyl)-7-(4-chlorophenyl)-3-([4-[(2-methoxyethoxy)methyl]phenyl]methyl)-1-methylpurine-2,6-dione] belongs below 0.1 µM; to `CN1CCC(Cn2c(=O)n(C)c(=O)c3c2nc(-c2ccccc2Cl)n3-c2ccc(Cl)cc2)CC1` [Compound 116, 8-(2-chlorophenyl)-7-(4-chlorophenyl)-1-methyl-3-[(1-methylpiperidin-4-yl)methyl]-2,3,6,7-tetrahydro-1H-purine-2,6-dione], at least 5 µM.
Under `CS(=O)(=O)c1ccc(Cn2c(=O)n(CC(N)=O)c(=O)c3c2nc(-c2ccccc2Cl)n3-c2ccc(Cl)cc2)cc1` [Compound 155, 2-[8-(2-chlorophenyl)-7-(4-chlorophenyl)-3-[(4-methanesulfonylphenyl)methyl]-2,6-dioxopurin-1-yl]acetamide] stands below 0.1 µM; under `NC(=O)Cn1c(=O)c2c(nc(-c3ccccc3Cl)n2-c2ccc(Cl)cc2)n(CC2(F)CCOCC2)c1=O` [Compound 157], below 0.1 µM.
Under `NC(=O)Cn1c(=O)c2c(nc(-c3ccccc3Cl)n2-c2ccc(Cl)cc2)n(CC2(O)CCOCC2)c1=O` [Compound 168, 2-[8-(2-chlorophenyl)-7-(4-chlorophenyl)-3-[(4-hydroxyoxan-4-yl)methyl]-2,6-dioxopurin-1-yl]acetamide] stands below 0.1 µM.
The compound `CC(c1ccc(C(=O)NCCO)cc1)n1c(=O)n(C)c(=O)c2c1nc(-c1ccccc1Cl)n2-c1ccc(Cl)cc1` (stereo in doubt) [Compound 134, 4-[(1R)-1-[8-(2-chlorophenyl)-7-(4-chlorophenyl)-1-methyl-2,6-dioxopurin-3-yl]ethyl]-N-(2-hydroxyethyl)benzamide] showed an IC50 of 0.1 to 1 µM.
Under `NC(=O)Cn1c(=O)c2c(nc(-c3ccc(F)cc3F)n2-c2ccc(Cl)cc2)n(CC2CCS(=O)(=O)CC2)c1=O` [Compound 172, 2-[7-(4-chlorophenyl)-8-(2,4-difluorophenyl)-3-[(1,1-dioxo-1λ^6-thian-4-yl)methyl]-2,6-dioxopurin-1-yl]acetamide] stands 0.1 to 1 µM; under `CC(=O)N1CCC(Cn2c(=O)n(CC(N)=O)c(=O)c3c2nc(-c2ccccc2Cl)n3-c2ccc(Cl)cc2)CC1` [Compound 123, 2-[3-[(1-acetylpiperidin-4-yl)methyl]-8-(2-chlorophenyl)-7-(4-chlorophenyl)-2,6-dioxopurin-1-yl]acetamide], 0.1 to 1 µM; under `NC(=O)Cn1c(=O)c2c(nc(-c3ccccc3Cl)n2-c2ccc(Cl)cc2)n(Cc2ccc([C@@H]3COCCO3)cc2)c1=O` [Compound 145, 2-[8-(2-chlorophenyl)-7-(4-chlorophenyl)-3-([4-[(2R)-1,4-dioxan-2-yl]phenyl]methyl)-2,6-dioxopurin-1-yl]acetamide], below 0.1 µM.
`NC(=O)Cn1c(=O)c2c(nc(-c3ccccc3Cl)n2-c2ccc(Cl)cc2)n(Cc2ccc([C@H]3COCCO3)cc2)c1=O` [Compound 141, 2-[8-(2-chlorophenyl)-7-(4-chlorophenyl)-3-([4-[(2S)-1,4-dioxan-2-yl]phenyl]methyl)-2,6-dioxopurin-1-yl]acetamide] gave an IC50 below 0.1 µM.
Under `Cn1c(=O)c2c(nc(-c3ccccc3Cl)n2-c2ccc(Cl)cc2)n(Cc2ccc(C(=O)NCC3(O)CC3)cn2)c1=O` [Compound 162] stands below 0.1 µM; under `Cn1nccc1-c1nc2c(c(=O)n(C)c(=O)n2Cc2ccc(S(N)(=O)=O)cn2)n1-c1ccc(Cl)cc1` [Compound 182, 6-[[7-(4-chlorophenyl)-1-methyl-8-(2-methylpyrazol-3-yl)-2,6-dioxopurin-3-yl]methyl]pyridine-3-sulfonamide], 0.1 to 1 µM; under `CC(C(N)=O)n1c(=O)c2c(nc(-c3ccccc3Cl)n2-c2ccc(Cl)cc2)n(C2CCOCC2)c1=O` (stereo in doubt) [Compound 138, (2R)-2-[8-(2-chlorophenyl)-7-(4-chlorophenyl)-3-(oxan-4-yl)-2,6-dioxopurin-1-yl]propanamide], 0.1 to 1 µM.
To `C[C@@H](CO)NC(=O)c1ccc(Cn2c(=O)n(C)c(=O)c3c2nc(-c2ccccc2Cl)n3-c2ccc(Cl)cc2)nc1` [Compound 160] belongs below 0.1 µM.
Under `CC(C(N)=O)n1c(=O)c2c(nc(-c3ccccc3Cl)n2-c2ccc(Cl)cc2)n(CC2CCOCC2)c1=O` (stereo in doubt) [Compound 140, (2S)-2-[8-(2-chlorophenyl)-7-(4-chlorophenyl)-3-(oxan-4-ylmethyl)-2,6-dioxopurin-1-yl]propanamide] stands below 0.1 µM; under `C[C@@H](C(N)=O)n1c(=O)c2c(nc(-c3ccccc3Cl)n2-c2ccc(Cl)cc2)n(CC2CCOCC2)c1=O` [Compound 139], below 0.1 µM.
In turn, `NC(=O)Cn1c(=O)c2c(nc(-c3ccccc3Cl)n2-c2ccc(Cl)cc2)n(CC2CCN(CCO)CC2)c1=O` [Compound 117] registered an IC50 of at least 5 µM.
Under `C[C@@H](c1ccc(S(N)(=O)=O)cn1)n1c(=O)n(C)c(=O)c2c1nc(-c1ccccc1Cl)n2-c1ccc(Cl)cc1` [Compound 179, 6-[(1S)-1-[8-(2-chlorophenyl)-7-(4-chlorophenyl)-1-methyl-2,6-dioxopurin-3-yl]ethyl]pyridine-3-sulfonamide] stands below 0.1 µM; under `C[C@H](Cn1c(=O)c2c(nc(-c3ccccc3Cl)n2-c2ccc(Cl)cc2)n(CC2CCS(=O)(=O)CC2)c1=O)C(N)=O` [Compound 175], below 0.1 µM.
Take `Cn1c(=O)c2c(nc(-c3ccccc3Cl)n2-c2ccc(Cl)cc2)n(Cc2ccc(C(=O)O)cc2)c1=O` [Compound 111, 4-[[8-(2-chlorophenyl)-7-(4-chlorophenyl)-1-methyl-2,6-dioxo-2,3,6,7-tetrahydro-1H-purin-3-yl]methyl]benzoic acid]: the IC50 is 1 to 5 µM.
Under `NC(=O)Cn1c(=O)c2c(nc(-c3ccccc3Cl)n2-c2ccc(Cl)cc2)n(Cc2ccc(CC(O)CO)cc2)c1=O` (stereo in doubt) [Compound 148, 2-[8-(2-chlorophenyl)-7-(4-chlorophenyl)-3-([4-[(2R)-2,3-dihydroxypropyl]phenyl]methyl)-2,6-dioxopurin-1-yl]acetamide] stands 0.1 to 1 µM; under `C[C@H](c1ccc(S(N)(=O)=O)cn1)n1c(=O)n(C)c(=O)c2c1nc(-c1ccccc1Cl)n2-c1ccc(Cl)cc1` [Compound 180, 6-[(1R)-1-[8-(2-chlorophenyl)-7-(4-chlorophenyl)-1-methyl-2,6-dioxopurin-3-yl]ethyl]pyridine-3-sulfonamide], below 0.1 µM.

The record behind these values is patent US20220380370A1 (Goldfinch Bio, Inc., priority 2019, published 2022).
